# Assay results from paper PMC7403827 (Clinical and Translational Medicine, 2020).
# Where two headings read alike, the source gives them in different places.
# Experiments:
# [1] = cited from earlier work
# [2] = Gefitinib 225mg, Japanese patients, ref [3] Nakagawa K et al., Annals of Oncology 2003, cited from earlier work
# [3] = Pharmacokinetic analyses: apatinib and gefitinib plasma concentrations (LC–MS/MS, non‐compartmental); conditions: for half-life: T1/2, gefitinib 250 mg + apatinib 500 or 250 mg
# Description: In the two cohorts, PK assessment consisted of a single‐dose‐administration on Cycle 1, Day 1's (C1, D1) test and a continuous‐dose‐administration on Cycle 1, Day 15′s (C1, D15) test. For detailed blood collection administration, see the supplementary materials. […] PK parameters, including maximum plasma concentration (C max), area under the plasma concentration‐time curve (AUC), time to reach maximum plasma concentration (T max), elimination half‐life (T 1/2), steady state concentration (Css), area under the plasma concentration‐time curve for steady state (AUCss), steady state volume of distribution (Vdss), and steady state clearance rate (CLss) were calculated using non‐compartmental methods with Winnonlin 7 software. The AUC was estimated by using the linear trapezoidal rule method and T 1/2 was determined by linear regression of the terminal slope of the logarithmic plasma concentration‐time profile. Descriptive statistics were measured for the PK parameters using mean with its corresponding standard deviation (SD).
# In the two cohorts, PK assessment consisted of a single-dose-administration (C1D1) test and a continuous-dose-administration (C1D15) test. Serial peripheral blood samples were collected at pre-dose and 1, 2, 3, 4, 5, 6, 8, 12 and 24 post-dose for the single dose PK test. For the continuous PK test, serial peripheral blood samples were collected at pre-dose and at 0.5, 1, 2, 3, 4, 5, 6, 8, 12, and 24 hours post-dose on […]. Samples were centrifuged, and plasma frozen at −80°C refrigerator until further analysis.
# Descriptive statistics (mean and standard deviation) were estimated for PK parameters. Median values and ranges were provided for time to reach maximum plasma concentration.
# EGFR‐mutant NSCLC = conditions: cited from earlier work
compound,measurement,setting,value
COc1cc2ncnc(Nc3ccc(F)c(Cl)c3)c2cc1OCCCN1CCOCC1 [Gefitinib],MTD,[1],750 mg/day
same,AUC0-24multi,[2]; multiple-dosage regimen,5191 (61) ng·h/ml
same,AUC0-24,[2],1986 (58) ng·h/ml
same,Cmax,[2],150 (92) ng/ml
same,Cmaxmulti,[2],341 (61) ng/ml
same,Tmax,[2],5 (3-7) h
same,Cmaxmulti,"[3]; Table S6, Gefitinib 250mg + apatinib, this study, geometric mean, SD",469 (134) ng/ml
same,Tmax,"[3]; gefitinib 250 mg + apatinib 500 or 250 mg, Day 15 (n = 11), Median (range)",4 (3‐6) h
same,AUC(0-t),"[3]; human, plasma, oral, AUC0-24, Table S6, Gefitinib 250mg + apatinib, this study, geometric mean, SD",3330 ng·h/mL
same,AUC,"[3]; human, plasma, oral, AUC0-24multi, Table S6, Gefitinib 250mg + apatinib, this study, multiple-dosage regimen, geometric mean, SD",8130 ng·h/mL
same,AUC,"[3]; human, plasma, oral, AUC0‐24, gefitinib 250 mg + apatinib 500 or 250 mg, Day 1 (n = 11), Table 2: Geometric Mean (%CV)",3440 ng·h/mL
same,AUC,"[3]; human, plasma, oral, AUC0‐24, gefitinib 250 mg + apatinib 500 or 250 mg, Day 15 (n = 11), Table 2: Geometric Mean (%CV)",7980 ng·h/mL
same,AUC,"[3]; human, plasma, oral, AUC0‐∞, gefitinib 250 mg + apatinib 500 or 250 mg, Day 1 (n = 11), Geometric Mean (%CV)",6400 ng·h/mL
same,AUC,"[3]; human, plasma, oral, AUC0‐∞, gefitinib 250 mg + apatinib 500 or 250 mg, Day 15 (n = 11), Geometric Mean (%CV)",18100 ng·h/mL
same,AUC,"[3]; human, plasma, oral, AUCss, steady state, Gefitinib 250mg + apatinib, Mean±SD",7220 ± 1730 ng·h/mL
same,clearance,"[3]; human, plasma, oral, CL, gefitinib 250 mg + apatinib 500 or 250 mg, Day 1 (n = 11), Mean (SD)",683 mL/min
same,clearance,"[3]; human, plasma, oral, CL, gefitinib 250 mg + apatinib 500 or 250 mg, Day 15 (n = 11), Mean (SD)",533 mL/min
same,clearance,"[3]; human, plasma, oral, CLss, steady state, Gefitinib 250mg + apatinib, Mean±SD",617 mL/min
same,Cmax,"[3]; human, plasma, oral, Table S6, Gefitinib 250mg + apatinib, this study, geometric mean, SD",488 ± 28 ng/mL
same,Cmax,"[3]; human, plasma, oral, gefitinib 250 mg + apatinib 500 or 250 mg, Day 1 (n = 11), Table 2: Geometric Mean (%CV)",272 ng/mL
same,Cmax,"[3]; human, plasma, oral, gefitinib 250 mg + apatinib 500 or 250 mg, Day 15 (n = 11), Table 2: Geometric Mean (%CV)",465 ng/mL
same,half-life,"[3]; human, plasma, oral, Day 1 (n = 11), Mean (SD)",21 h
same,half-life,"[3]; human, plasma, oral, Day 15 (n = 11), Mean (SD)",30 h
same,Tmax,"[3]; human, plasma, oral, Tmax, Table S6, Gefitinib 250mg + apatinib, this study, geometric mean, SD",3.9 h
same,Tmax,"[3]; human, plasma, oral, Tmax, gefitinib 250 mg + apatinib 500 or 250 mg, Day 1 (n = 11), Median (range)",3 h
same,Tmax,"[3]; human, plasma, oral, Tmax, gefitinib 250 mg + apatinib 500 or 250 mg, Day 15 (n = 11), Median (range)",3 h
same,Vd,"[3]; human, plasma, oral, Vd, gefitinib 250 mg + apatinib 500 or 250 mg, Day 1 (n = 11), Mean (SD)",1100 L
same,Vd,"[3]; human, plasma, oral, Vd, gefitinib 250 mg + apatinib 500 or 250 mg, Day 15 (n = 11), Mean (SD)",1330 L
same,Vd,"[3]; human, plasma, oral, Vdss, steady state, Gefitinib 250mg + apatinib, Mean±SD",880 ± 234 L
C=CC(=O)Nc1cc(Nc2nccc(-c3cn(C)c4ccccc34)n2)c(OC)cc1N(C)CCN(C)C [Osimertinib],mPFS,EGFR‐mutant NSCLC; AURA3 study,10.1 months
C#Cc1cccc(Nc2ncnc3cc(OCCOC)c(OCCOC)cc23)c1 [erlotinib],mPFS,EGFR‐mutant NSCLC; ARTEMIS (CTONG 1509) study,11.3 months
same,PFS,EGFR‐mutant NSCLC; JO25567 study,9.7 months
same,PFS,EGFR‐mutant NSCLC; RELAY study,12.4 months
